Assay results published in US20240408216A1, “PROTEIN INHIBITOR OR DEGRADING AGENT, PHARMACEUTICAL COMPOSITION CONTAINING SAME AND PHARMACEUTICAL USE” (JING MEDICINE TECHNOLOGY (SHANGHAI) LTD., priority 2021, published 2024).

Assays:
BaF3 (EGFR WT) = experiment: Cell proliferation IC50 assay (Cell Titer GLO), BaF3 WT cells; format: cell-based; conditions: Mus musculus, Ba/F3 EGFR, Table 6, 10 ng/ml EGF, 72 h
How it was run: (§1)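 Cells plated at 2000-4000 cells/well and treated the next day with serially diluted compound for 72 h at 37° C, 5% CO2. Viability read by CellTiter-Glo luminescence, normalised to DMSO and cell-free blank controls; IC50 fitted from growth inhibition curves.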

[1] = system: BaF3 (EGFR L858R/T790M/C797S); experiment: Cell proliferation IC50 assay (Cell Titer GLO), BaF3 LTC cells; format: cell-based; conditions: Mus musculus, Ba/F3 EGFR, Table 6, 72 h
How it was run: as §1

BaF3 (EGFR Del19/C797S) = biological target: T1, BaF3 (EGFR Del19/C797S) (Homo sapiens, UniProt P00533, C797S, cells depend on it, form not given); experiment: Cell proliferation IC50 assay (Cell Titer GLO), BaF3 DC cells; format: cell-based, mouse; conditions: Table 6, 72 h
T1 construct: BaF3 (EGFR Del19/C797S)|DC|RPMI1640 + 10% FBS
T1 sequence (P00533 with tags, fused parts or gaps DEL746-750/C797S, form open): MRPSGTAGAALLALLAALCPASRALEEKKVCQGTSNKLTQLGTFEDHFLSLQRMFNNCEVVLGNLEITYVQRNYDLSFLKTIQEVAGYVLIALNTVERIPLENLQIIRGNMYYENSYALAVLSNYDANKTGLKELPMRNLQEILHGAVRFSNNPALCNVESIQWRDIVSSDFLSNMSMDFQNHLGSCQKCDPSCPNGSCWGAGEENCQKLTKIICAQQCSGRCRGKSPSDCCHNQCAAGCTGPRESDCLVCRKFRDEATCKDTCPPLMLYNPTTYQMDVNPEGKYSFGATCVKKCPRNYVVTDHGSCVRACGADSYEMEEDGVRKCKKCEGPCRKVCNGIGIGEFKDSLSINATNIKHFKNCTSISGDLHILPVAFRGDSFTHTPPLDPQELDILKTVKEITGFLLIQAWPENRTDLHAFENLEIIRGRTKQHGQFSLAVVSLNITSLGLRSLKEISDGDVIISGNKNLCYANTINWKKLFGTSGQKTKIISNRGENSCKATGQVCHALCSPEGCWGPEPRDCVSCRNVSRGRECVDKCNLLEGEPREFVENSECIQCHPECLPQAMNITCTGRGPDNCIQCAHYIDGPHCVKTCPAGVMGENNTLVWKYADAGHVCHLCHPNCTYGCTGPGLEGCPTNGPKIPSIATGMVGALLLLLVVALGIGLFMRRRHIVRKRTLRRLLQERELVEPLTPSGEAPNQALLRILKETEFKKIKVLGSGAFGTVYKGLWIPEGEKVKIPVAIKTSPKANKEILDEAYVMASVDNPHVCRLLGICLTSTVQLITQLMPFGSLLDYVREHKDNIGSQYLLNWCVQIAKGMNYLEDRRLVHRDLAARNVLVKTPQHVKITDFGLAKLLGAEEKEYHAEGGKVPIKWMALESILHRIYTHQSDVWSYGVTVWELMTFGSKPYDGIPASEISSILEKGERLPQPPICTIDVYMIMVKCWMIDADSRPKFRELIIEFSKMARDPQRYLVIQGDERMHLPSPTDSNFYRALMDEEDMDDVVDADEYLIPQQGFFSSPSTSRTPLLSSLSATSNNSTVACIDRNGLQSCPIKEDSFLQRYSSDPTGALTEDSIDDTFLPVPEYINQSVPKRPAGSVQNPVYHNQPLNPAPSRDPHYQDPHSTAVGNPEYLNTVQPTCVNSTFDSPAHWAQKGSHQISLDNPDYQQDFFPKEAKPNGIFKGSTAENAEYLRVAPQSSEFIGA
How it was run: as §1

[2] = system: BaF3 (EGFR Del19/T790M/C797S); experiment: Cell proliferation IC50 assay (Cell Titer GLO), BaF3 DTC cells; format: cell-based; conditions: Mus musculus, Ba/F3 EGFR-Del19/T790M/C797S, Table 6, 72 h
Experimental: IC50 of compounds in the present invention was determined by Cell Titer GLO reagent from Promega. The procedures are as follows:
Tumor cells were cultured in specified medium in an incubator at 37° C. and 5% CO2. The cells were passaged periodically. Cells at the logarithmic growth phase were collected for plating at a density of 2000-4000 cells/well. The next day, the compounds of the present invention were serially diluted and added to the cells, with DMSO being the negative control and the culture media without cells being the blank control. The plate was incubated in the incubator for 72 h. The cell viability assay was performed by adding the detection reagents to the cell culture media according to Cell Titer GLO reagent instructions and detecting luminescent signals on an EnVision microplate reader (PerkinElmer).
Inhibition of cell growth by the compounds of the present invention was plotted by Prism Graphpad software for statistically calculating the IC50 of the compound of the present invention.

A431 = experiment: Cell proliferation IC50 assay (Cell Titer GLO), A431 cells; format: cell-based; conditions: Homo sapiens, A-431; Table 6; A431, 72 h; read-out: A431 IC50
How it was run: as §1

| Structure (SMILES) | IC50 (BaF3 (EGFR WT)) | IC50 [1] | IC50 (BaF3 (EGFR Del19/C797S)) | IC50 [2] | IC50 (A431) |
| --- | --- | --- | --- | --- | --- |
| COc1cc(N2CCC(N3CCN(CCCCOc4cccc5c4CN(C4CCC(=O)NC4=O)C5=O)CC3)CC2)c(CC#N)cc1Nc1ncc(Cl)c(Nc2ccccc2P(C)(C)=O)n1 (stereo not shown) [Example E179] | 0.153 µM | 0.0446 µM | 0.0013 µM | 0.00594 µM | 1.17 µM |
| CCc1cc(Nc2ncc(Cl)c(Nc3ccccc3P(C)(C)=O)n2)c(OC)cc1N1CCC(N2CCN([C@H]3C[C@H](Oc4cc5c(cc4F)C(=O)N(C4CCC(=O)NC4=O)C5)C3)CC2)CC1 (stereo partly shown) [Example E205] | > 4 µM | 0.0517 µM | 0.0099 µM | 0.00687 µM | 1.05 µM |
| COc1cc(N2CCC(N3CCN(CCOc4cccc5c4CN(C4CCC(=O)NC4=O)C5=O)CC3)CC2)c(C(C)=O)cc1Nc1ncc(Cl)c(Nc2ccccc2P(C)(C)=O)n1 (stereo not shown) [Example E185] | 1.65 µM | 0.144 µM | 0.0203 µM | 0.0188 µM | 1.83 µM |
| CCc1cc(Nc2ncc(Cl)c(Nc3ccccc3P(C)(C)=O)n2)c(OC)cc1N1CCC2(CCN(CCCCOc3ccc(NC4CCC(=O)NC4=O)cc3)CC2)CC1 (stereo not shown) [Example E89] | 1.15 µM | 1.04 µM | 0.0799 µM | 0.0895 µM | 3.65 µM |
| CCc1cc(Nc2ncc(Cl)c(Nc3ccccc3P(C)(C)=O)n2)c(OC)cc1N1CCC(N2CCN(CC/C=C\c3cccc4c3CN(C3CCC(=O)NC3=O)C4=O)CC2)CC1 (stereo not shown) [Example E37] | 1.07 µM | 0.0153 µM | 0.0031 µM | 0.00484 µM | 1.21 µM |
| CCc1cc(Nc2ncc(Cl)c(Nc3ccccc3P(C)(C)=O)n2)c(OC)cc1N1CCC(N2CCN(CCCCOc3cccc4c3CN(C3CCC(=O)NC3=O)C4=O)C(=O)C2)CC1 (stereo not shown) [Example E87] | > 4 µM | 0.0518 µM | 0.0053 µM | 0.0115 µM | 3.8 µM |
| CCc1cc(Nc2ncc(Cl)c(Nc3ccccc3P(C)(C)=O)n2)c(OC)cc1N1CCC(N(C)CCCCOc2cccc3c2CN(C2CCC(=O)NC2=O)C3=O)CC1 (stereo not shown) [Example E116] | > 4 µM | 0.0563 µM | 0.0043 µM | 0.00732 µM | 1.22 µM |
| COc1cc(N2CCC(N3CCN(CCC#Cc4cccc5c4CN(C4CCC(=O)NC4=O)C5=O)CC3)CC2)c(CO)cc1Nc1ncc(Cl)c(Nc2ccccc2P(C)(C)=O)n1 (stereo not shown) [Example E91] | 0.305 µM | 0.115 µM | 0.0052 µM | 0.0185 µM | 1.43 µM |
| COc1cc(N2CCC(N3CCN(CCCCOc4cccc5c4CN(C4CCC(=O)NC4=O)C5=O)CC3)CC2)c(C#N)cc1Nc1ncc(Cl)c(Nc2ccccc2P(C)(C)=O)n1 (stereo not shown) [Example E103] | 0.639 µM | 0.0218 µM | 0.0046 µM | 0.00554 µM | 1.01 µM |
| CCc1cc(Nc2ncc(Cl)c(Nc3ccccc3P(C)(C)=O)n2)c(OC)cc1N1CCC(N2C[C@@H](C)N(CCCCOc3cccc4c3CN(C3CCC(=O)NC3=O)C4=O)[C@@H](C)C2)CC1 (stereo partly shown) [Example E129] | 0.889 µM | 0.0477 µM | 0.0033 µM | 0.00613 µM | 1.33 µM |
| CCc1cc(Nc2ncc(Cl)c(Nc3ccccc3P(C)(C)=O)n2)c(OC)cc1N1CCC(N2CCN(C(C)(C)C#Cc3cccc4c3CN(C3CCC(=O)NC3=O)C4=O)CC2)CC1 (stereo not shown) [Example E156] | > 4 µM | 0.217 µM | 0.0167 µM | 0.0107 µM | ≥ 1.54 µM |
| CCc1cc(Nc2ncc(Cl)c(Nc3ccccc3P(C)(C)=O)n2)c(Cl)cc1N1CCC(N2CCN(CCC#Cc3cccc4c3CN(C3CCC(=O)NC3=O)C4=O)CC2)CC1 (stereo not shown) [Example E46] | 1.2 µM | 0.0177 µM | 0.0092 µM | 0.0101 µM | 1.61 µM |
| CCc1cc(Nc2ncc(Cl)c(Nc3ccccc3P(C)(C)=O)n2)c(OC(F)F)cc1N1CCC(N2CCN(CCOc3cccc4c3CN(C3CCC(=O)NC3=O)C4=O)CC2)CC1 (stereo not shown) [Example E151] | > 4 µM | 0.0561 µM | 0.0067 µM | 0.00385 µM | 3.16 µM |
| CCc1cc(Nc2nc(Nc3ccccc3P(C)(C)=O)c3cc[nH]c3n2)c(C)cc1N1CCC(N2CCN(CCCCOc3cccc4c3CN(C3CCC(=O)NC3=O)C4=O)CC2)CC1 (stereo not shown) [Example E140] | > 4 µM | 0.0546 µM | 0.0081 µM | 0.00797 µM | > 4 µM |
| CCc1cc(Nc2ncc(Cl)c(Nc3ccccc3P(C)(C)=O)n2)c(OC)nc1N1CCC(N2CCN(CCCCOc3cccc4c3CN(C3CCC(=O)NC3=O)C4=O)CC2)CC1 (stereo not shown) [Example E115] | 0.779 µM | 0.0244 µM | 0.0014 µM | 0.00519 µM | 1.16 µM |
| CCc1cc(Nc2ncc(Cl)c(Nc3ccccc3P(C)(C)=O)n2)c(OC)cc1N1CCC(N2CCN(C(=O)CCC#Cc3cccc4c3CN(C3CCC(=O)NC3=O)C4=O)CC2)CC1 (stereo not shown) [Example E50] | 1.26 µM | 0.0581 µM | 0.0126 µM | 0.0219 µM | 1.35 µM |
| CCc1cc(Nc2ncc(Cl)c(Nc3ccccc3P(C)(C)=O)n2)c(OC)cc1N1CCC(N2CCN(CCCC#Cc3ccc4c(N5CCC(=O)NC5=O)nn(C)c4c3)CC2)CC1 [Example E97] | 1.06 µM | 0.173 µM | 0.0206 µM | 0.0456 µM | 1.07 µM |
| CCc1cc(Nc2ncc(-n3cccn3)c(Nc3ccccc3P(C)(C)=O)n2)c(OC)cc1N1CCC(N2CCN(CCOc3cccc4c3CN(C3CCC(=O)NC3=O)C4=O)CC2)CC1 (stereo not shown) [Example E165] | > 4 µM | > 4 µM | 0.0042 µM | 0.78 µM | > 4 µM |
| COc1cc(N2CCC(N3CCc4cc(Oc5cccc6c5CN(C5CCC(=O)NC5=O)C6=O)ccc4C3)CC2)c(C2CC2)cc1Nc1ncc(Cl)c(Nc2ccccc2P(C)(C)=O)n1 (stereo not shown) [Example E75] | 0.0803 µM | 0.0642 µM | 0.0202 µM | 0.0263 µM | > 4 µM |
| CCc1cc(Nc2ncc(Cl)c(Nc3ccccc3P(C)(C)=O)n2)c(OC)cc1N1CCC(N2C[C@@H]3C[C@H]2CN3CCOc2cccc3c2CN(C2CCC(=O)NC2=O)C3=O)CC1 (stereo partly shown) [Example E137] | 1.08 µM | 0.0763 µM | 0.0066 µM | 0.0115 µM | 1.27 µM |
| COc1cc(N2CCC(N3CCN(CCC#Cc4cccc5c4CN(C4CCC(=O)NC4=O)C5=O)CC3)CC2)c(CC#N)cc1Nc1ncc(Cl)c(Nc2ccccc2P(C)(C)=O)n1 (stereo not shown) [Example E180] | 0.888 µM | 0.0226 µM | 0.0024 µM | 0.00535 µM | 1.1 µM |
| COCc1cc(Nc2ncc(Cl)c(Nc3ccccc3P(C)(C)=O)n2)c(OC)cc1N1CCC(N2CCN(CCCCOc3cccc4c3CN(C3CCC(=O)NC3=O)C4=O)CC2)CC1 (stereo not shown) [Example E125] | > 4 µM | 0.104 µM | 0.0184 µM | 0.0203 µM | > 4 µM |
| CCc1cc(Nc2ncc(Cl)c(Nc3ccccc3P(C)(C)=O)n2)c(OC)cc1N1CCC(N2CCN([C@H]3C[C@@H](Oc4cc5c(cc4F)C(=O)N(C4CCC(=O)NC4=O)C5)C3)CC2)CC1 (stereo partly shown) [Example E67] | 0.306 µM | 0.0206 µM | 0.0044 µM | 0.00409 µM | 2.49 µM |
